Measurements reported in article PMC8745178, “Methyl 2-Halo-4-Substituted-5-Sulfamoyl-Benzoates as High Affinity and Selective Inhibitors of Carbonic Anhydrase IX” (International Journal of Molecular Sciences, 2021).
Values joined by “and” are separate entries in the source; they are usually repeats but may differ in a detail not shown here. Equal values may be shown once.

Columns and labels:
[1] = determination of pKa of the sulfonamide group by UV-VIS spectra at various pH; format: physicochemical; conditions: for f RSO2NH-, fraction of deprotonated sulfonamide: at pH 7.0, calculated from pKa; for pKa: calculated from spectra at various pH, 37 °C
CAIV = CAIV (Homo sapiens, UniProt P22748); experiment: fluorescent thermal shift assay (FTSA), CAIV; format: binding; conditions: 37 °C; for ΔGintr CAIV: converted from Kd_intr, independent of pH; for ΔGobs CAIV: converted from Kd_obs, pH 7.0, FTSA
Chain of CAIV (P22748 19-312): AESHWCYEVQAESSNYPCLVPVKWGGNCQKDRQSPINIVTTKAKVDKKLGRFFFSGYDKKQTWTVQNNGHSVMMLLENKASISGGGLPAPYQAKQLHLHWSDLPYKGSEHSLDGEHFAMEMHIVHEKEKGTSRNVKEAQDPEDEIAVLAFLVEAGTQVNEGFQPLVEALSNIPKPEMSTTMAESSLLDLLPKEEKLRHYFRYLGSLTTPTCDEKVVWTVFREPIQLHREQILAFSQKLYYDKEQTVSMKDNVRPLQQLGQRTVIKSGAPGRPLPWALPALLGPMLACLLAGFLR

CAI [2] = target: T1, CAI (Homo sapiens, UniProt P00915); experiment: fluorescent thermal shift assay (FTSA), CAI; format: binding; conditions: 37 °C; for ΔGintr CAI: converted from Kd_intr, independent of pH; for ΔGobs CAI: converted from Kd_obs, pH 7.0, FTSA
T1 sequence (P00915 whole entry): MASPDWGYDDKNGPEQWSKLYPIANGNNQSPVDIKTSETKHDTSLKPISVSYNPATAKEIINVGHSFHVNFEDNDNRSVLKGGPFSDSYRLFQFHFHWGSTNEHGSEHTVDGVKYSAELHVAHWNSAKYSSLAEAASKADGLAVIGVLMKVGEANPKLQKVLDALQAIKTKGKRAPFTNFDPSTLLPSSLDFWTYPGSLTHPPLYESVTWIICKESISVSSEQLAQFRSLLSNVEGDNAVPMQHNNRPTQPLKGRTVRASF

CAIX [3] = target: T2, CAIX (Homo sapiens, UniProt Q16790)
CAVA = CAVA (Homo sapiens, UniProt P35218); experiment: fluorescent thermal shift assay (FTSA), CAVA; format: binding; conditions: 37 °C; for ΔGintr CAVA: converted from Kd_intr, independent of pH; for ΔGobs CAVA: converted from Kd_obs, pH 7.0, FTSA
Chain of CAVA (P35218 39-305): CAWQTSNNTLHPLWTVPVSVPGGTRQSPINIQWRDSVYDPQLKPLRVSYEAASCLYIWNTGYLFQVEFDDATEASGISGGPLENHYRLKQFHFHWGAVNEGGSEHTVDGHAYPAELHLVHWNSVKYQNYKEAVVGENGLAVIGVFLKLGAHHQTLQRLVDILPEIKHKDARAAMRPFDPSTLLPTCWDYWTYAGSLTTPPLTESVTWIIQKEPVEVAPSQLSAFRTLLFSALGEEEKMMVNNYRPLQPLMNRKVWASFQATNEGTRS

CAXIII = CAXIII (Homo sapiens, UniProt Q8N1Q1); experiment: fluorescent thermal shift assay (FTSA), CAXIII; format: binding; conditions: 37 °C; for ΔGintr CAXIII: converted from Kd_intr, independent of pH; for ΔGobs CAXIII: converted from Kd_obs, pH 7.0, FTSA
Chain of CAXIII (Q8N1Q1 whole entry): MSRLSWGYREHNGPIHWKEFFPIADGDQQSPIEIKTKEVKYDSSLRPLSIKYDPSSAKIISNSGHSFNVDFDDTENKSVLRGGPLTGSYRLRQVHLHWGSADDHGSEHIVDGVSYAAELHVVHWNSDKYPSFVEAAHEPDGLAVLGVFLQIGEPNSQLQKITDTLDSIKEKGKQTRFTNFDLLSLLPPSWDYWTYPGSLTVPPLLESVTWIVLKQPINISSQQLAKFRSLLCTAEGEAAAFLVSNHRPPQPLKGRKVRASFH

CAXII = CAXII (Homo sapiens, UniProt O43570); conditions: for -TΔSintr CAXII / ΔHintr CAXII: intrinsic, 37 °C; for ΔHintr CAXII: independent of pH and buffer; for ΔHobs CAXII: observed, sodium phosphate buffer pH 7.0, 37 °C, ITC
Chain of CAXII (O43570 25-354): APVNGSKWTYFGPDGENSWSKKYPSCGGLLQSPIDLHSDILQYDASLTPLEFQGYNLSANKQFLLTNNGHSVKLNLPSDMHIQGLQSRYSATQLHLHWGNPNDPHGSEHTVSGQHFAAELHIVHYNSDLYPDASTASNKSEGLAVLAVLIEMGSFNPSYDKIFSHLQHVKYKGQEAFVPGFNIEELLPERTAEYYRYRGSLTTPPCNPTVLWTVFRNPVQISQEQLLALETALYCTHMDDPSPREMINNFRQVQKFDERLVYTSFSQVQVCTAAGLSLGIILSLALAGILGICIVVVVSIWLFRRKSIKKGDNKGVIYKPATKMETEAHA

CAXIV = CAXIV (Homo sapiens, UniProt Q9ULX7); experiment: fluorescent thermal shift assay (FTSA), CAXIV; format: binding; conditions: 37 °C; for ΔGintr CAXIV: converted from Kd_intr, independent of pH; for ΔGobs CAXIV: converted from Kd_obs, pH 7.0, FTSA
Chain of CAXIV (Q9ULX7 16-337): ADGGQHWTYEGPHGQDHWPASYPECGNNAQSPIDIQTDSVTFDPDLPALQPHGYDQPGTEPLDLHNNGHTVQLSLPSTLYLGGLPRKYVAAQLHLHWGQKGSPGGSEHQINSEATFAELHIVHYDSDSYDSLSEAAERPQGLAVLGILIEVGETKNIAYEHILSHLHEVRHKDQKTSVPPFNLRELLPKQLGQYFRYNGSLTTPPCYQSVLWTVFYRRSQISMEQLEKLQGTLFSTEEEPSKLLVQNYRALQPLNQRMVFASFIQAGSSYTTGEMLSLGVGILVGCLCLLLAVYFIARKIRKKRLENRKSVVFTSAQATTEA

[4] = 37 °C
CAVII = CAVII (Homo sapiens, UniProt P43166); experiment: fluorescent thermal shift assay (FTSA), CAVII; format: binding; conditions: 37 °C; for ΔGobs CAVII: converted from Kd_obs, pH 7.0, FTSA; for ΔGintr CAVII: converted from Kd_intr, independent of pH
Chain of CAVII (P43166 whole entry): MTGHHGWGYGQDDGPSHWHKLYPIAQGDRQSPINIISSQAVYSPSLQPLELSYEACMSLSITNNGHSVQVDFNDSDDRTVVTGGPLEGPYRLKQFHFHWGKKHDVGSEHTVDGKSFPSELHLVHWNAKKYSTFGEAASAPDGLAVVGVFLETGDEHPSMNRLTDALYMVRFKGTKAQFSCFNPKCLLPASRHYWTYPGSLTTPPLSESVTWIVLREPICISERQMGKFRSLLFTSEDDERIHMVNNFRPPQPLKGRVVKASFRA

[5] = target: T3, mimic-CAIX (mutant of CAII: A65S, N67Q, I91L, F130V, V134L, L203A) (Homo sapiens, UniProt P00918, A65S/F130V/I91L/L203A/N67Q/V134L)
CAIX [6] = target: T2, CAIX; experiment: fluorescent thermal shift assay (FTSA), CAIX; format: binding; conditions: for ΔGobs CAIX: pH 7
CAIII = CAIII (Homo sapiens, UniProt P07451); experiment: fluorescent thermal shift assay (FTSA), CAIII; format: binding; conditions: 37 °C; for ΔGobs CAIII: converted from Kd_obs, pH 7.0, FTSA
Chain of CAIII (P07451 whole entry): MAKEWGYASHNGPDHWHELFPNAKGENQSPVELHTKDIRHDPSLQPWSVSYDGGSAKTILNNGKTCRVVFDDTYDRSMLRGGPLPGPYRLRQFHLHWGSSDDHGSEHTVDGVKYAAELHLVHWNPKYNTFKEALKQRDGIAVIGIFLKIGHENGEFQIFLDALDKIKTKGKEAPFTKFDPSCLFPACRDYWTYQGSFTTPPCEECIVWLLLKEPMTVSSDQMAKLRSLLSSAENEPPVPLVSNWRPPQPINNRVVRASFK

CAVI = CAVI (Homo sapiens, UniProt P23280); experiment: fluorescent thermal shift assay (FTSA), CAVI; format: binding; conditions: 37 °C; for ΔGintr CAVI: converted from Kd_intr, independent of pH; for ΔGobs CAVI: converted from Kd_obs, pH 7.0, FTSA
Chain of CAVI (P23280 18-308): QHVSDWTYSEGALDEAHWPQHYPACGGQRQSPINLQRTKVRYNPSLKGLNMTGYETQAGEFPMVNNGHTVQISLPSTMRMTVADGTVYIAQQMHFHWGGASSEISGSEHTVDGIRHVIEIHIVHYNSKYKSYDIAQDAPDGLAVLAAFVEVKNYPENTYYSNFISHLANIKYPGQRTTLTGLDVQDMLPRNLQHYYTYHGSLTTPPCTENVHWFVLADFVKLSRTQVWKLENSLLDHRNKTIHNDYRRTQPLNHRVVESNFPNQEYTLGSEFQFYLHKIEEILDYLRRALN

[7] = target: T3, mimic-CAIX (mutant of CAII: A65S, N67Q, I91L, F130V, V134L, L203A); conditions: intrinsic, calculated using pKa_CAZn(II)H2O of CAII, 37 °C
CAII [8] = target: T4, CAII (Homo sapiens, UniProt P00918); experiment: fluorescent thermal shift assay (FTSA), CAII; format: binding; conditions: 37 °C; for ΔGintr CAII: converted from Kd_intr, independent of pH; for ΔGobs CAII: converted from Kd_obs, pH 7.0, FTSA
CAVB = CAVB (Homo sapiens, UniProt Q9Y2D0); experiment: fluorescent thermal shift assay (FTSA), CAVB; format: binding; conditions: 37 °C; for ΔGintr CAVB: converted from Kd_intr, independent of pH; for ΔGobs CAVB: converted from Kd_obs, pH 7.0, FTSA
Chain of CAVB (Q9Y2D0 34-317): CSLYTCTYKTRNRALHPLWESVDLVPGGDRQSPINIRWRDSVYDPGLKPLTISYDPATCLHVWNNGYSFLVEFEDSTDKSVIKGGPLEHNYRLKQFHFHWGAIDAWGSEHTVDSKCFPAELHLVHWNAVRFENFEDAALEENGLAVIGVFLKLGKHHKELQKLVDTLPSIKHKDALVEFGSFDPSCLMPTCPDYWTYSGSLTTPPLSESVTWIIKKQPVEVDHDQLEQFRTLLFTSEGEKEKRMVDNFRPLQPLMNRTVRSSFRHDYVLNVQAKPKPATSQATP

CAI [9] = target: T1, CAI
CAII [10] = target: T4, CAII
CAII [11] = experiment: fluorescent thermal shift assay (FTSA), CAII; format: binding, human; conditions: intrinsic
[12] = intrinsic, 37 °C, independent of pH and buffer
[13] = observed, sodium phosphate buffer pH 7.0, 37 °C, ITC

| SMILES | f RSO2NH-, fraction of deprotonated sulfonamide [1] | pKa [1] | ΔGintr CAIV (CAIV) | ΔGobs CAIV (CAIV) | ΔGintr CAI (CAI [2]) | ΔGobs CAI (CAI [2]) | ΔGintr CAVA (CAVA) | ΔGobs CAXIII (CAXIII) | -TΔSintr CAXII (CAXII) | ΔHintr CAXII (CAXII) | ΔHobs CAXII (CAXII) | ΔGobs CAXIV (CAXIV) | Δp_RSO2NH2H, protonation enthalpy of sulfonamide group [4] | ΔGobs CAVII (CAVII) | ΔGobs CAIX (CAIX [6]) | ΔGobs CAVI (CAVI) | ΔGintr CAII (CAII [8]) | ΔGobs CAII (CAII [8]) | ΔGintr CAVB (CAVB) | ΔGobs CAVB (CAVB) | also measured |
| --- | --- | --- | --- | --- | --- | --- | --- | --- | --- | --- | --- | --- | --- | --- | --- | --- | --- | --- | --- | --- | --- |
| COC(=O)c1cc(S(N)(=O)=O)c(SC2CCCCC2)cc1Cl [Compound 3b, Methyl 2-chloro-4-(cyclohexylsulfanyl)-5-sulfamoylbenzoate] | 0.3% and 0.25% | 9.6 | -13.6 kcal/mol | -9.08 kcal/mol | -10.5 kcal/mol | -6.79 kcal/mol | -9.61 kcal/mol | -10.3 kcal/mol | -3.42 kcal/mol | -11.5 kcal/mol | -6.96 kcal/mol | -11.2 kcal/mol | -8.53 kcal/mol | -9.68 kcal/mol | -13.5 kcal/mol | -9.2 kcal/mol | -13.6 kcal/mol | -9.37 kcal/mol | -11.1 kcal/mol | -7.03 kcal/mol | -TΔSintr CAIX (CAIX [3]; intrinsic, 37 °C): -10.8 kcal/mol; ΔHintr CAIX (CAIX [3]; [12]): -7.15 kcal/mol; ΔHobs CAIX (CAIX [3]; [13]): -2.51 kcal/mol; ΔGobs CAVA (CAVA): -5.66 kcal/mol; ΔGintr CAXIII (CAXIII): -14.1 kcal/mol; ΔGintr CAXIV (CAXIV): -15.5 kcal/mol; ΔHintr mimic CAIX ([5]; intrinsic, 37 °C, calculated using protonation enthalpy of CAII): -7.46 kcal/mol; ΔHobs mimic CAIX [5, 13]: -2.39 kcal/mol; binding affinity, times stronger to CAIX than CAXII (CAIX [6]): 150 times; native CAIX bound more strongly than mimic-CAIX (CAIX [6]): 10 fold; ΔGintr CAIX (CAIX [6]): -17.9 kcal/mol; ΔGintr CAIII (CAIII; converted from Kd_intr, independent of pH): -10.8 kcal/mol; ΔGobs CAIII (CAIII): -6.24 kcal/mol; ΔGintr CAVI (CAVI): -14.4 kcal/mol; ΔGintr mimic-CAIX [7]: -16.1 kcal/mol |
| COC(=O)c1cc(S(N)(=O)=O)c(Cl)cc1S(=O)(=O)c1ccccc1 [Compound 9a, Methyl 2-(benzenesulfonyl)-4-chloro-5-sulfamoylbenzoate] | 5.9% and 5.94% | 8.2 |  |  | -11.5 kcal/mol | -9.7 kcal/mol |  | -11.7 kcal/mol | -4.11 kcal/mol | -9.08 kcal/mol | -6.55 kcal/mol | -12.9 kcal/mol | -6.91 kcal/mol | -13.3 kcal/mol | -12 kcal/mol | -10.3 kcal/mol | -15.1 kcal/mol | -12.8 kcal/mol | -13.3 kcal/mol | -11.2 kcal/mol | ΔHintr CAI (CAI [9]; [12]): -9.49 kcal/mol; ΔHobs CAI (CAI [9]; [13]): -4.25 kcal/mol; ΔGintr CAVII (CAVII): -15.6 kcal/mol; ΔHintr CAII (CAII [10]; [12]): -5.57 kcal/mol; ΔHobs CAII (CAII [10]; [13]): -2.46 kcal/mol; ΔGintr CAVI (CAVI): -13.5 kcal/mol; binding to CAII stronger than to CAXII (factor) (CAII [11]): 26 fold |
| COC(=O)c1cc(S(N)(=O)=O)c(Cl)cc1SC1CCCCC1 [Compound 5b, Methyl 4-chloro-2-cyclohexylsulfanyl-5-sulfamoylbenzoate] | 0.4% | 9.4 | -14.4 kcal/mol | -10.2 kcal/mol | -12.6 kcal/mol | -9.2 kcal/mol | -11.3 kcal/mol | -11.4 kcal/mol | -4.76 kcal/mol | -10.4 kcal/mol | -6.5 kcal/mol | -11.8 kcal/mol | -7.96 kcal/mol | -10.9 kcal/mol | -11.5 kcal/mol | -9.49 kcal/mol | -14.8 kcal/mol | -10.9 kcal/mol | -15.5 kcal/mol | -11.7 kcal/mol | ΔGobs CAVA (CAVA): -7.65 kcal/mol; ΔGintr CAXIII (CAXIII): -14.8 kcal/mol; N (ITC, observed fitted parameter) CAXII (CAXII; single repeats, pH 7.0, 37 °C, Figure S8): 1.0 and 1.1; ΔGintr CAXIV (CAXIV): -15.8 kcal/mol; ΔGintr CAVII (CAVII): -14.9 kcal/mol; ΔGintr CAIX (CAIX [6]): -15.7 kcal/mol; ΔGobs CAIII (CAIII): ≥ -5.26 kcal/mol |
